Results reported in US20200246438A1, “TARGETING GDF6 AND BMP SIGNALING FOR ANTI-MELANOMA THERAPY” (UNIVERSITY OF MASSACHUSETTS, priority 2015, published 2020).
Entries after “also recorded” stand apart in the source; their conditions may differ.

How the values were obtained:
[1] = system: BMP signaling (phospho-SMAD1); test: Western blot of BMP signaling (phospho-SMAD1) in DMH1-treated A375 cells; assay type: cell-based, human; conditions: 10 μM DMH1, Western blot
Description: Protein extracts were prepared as previously described (S. D. Epstein LB, Hunte-McDonough B, harris C A, Cytokines: A pratical approach (Balkwill F R., ed). 81-93 (1991)). Extracts were separated on 12% SDS-PAGE gels. Blots were probed with primary antibodies (GDF6 (Sigma PRS4691; 1:1000), phospho-SMAD1/5/8 (Cell Signaling 13820; 1:1000), SMAD1 (Cell Signaling 9743; 1:500), Total SMAD1/5/8 (Santa Cruz sc-6031-R; 1:1000), FLAG (Sigma F3165, 1:2000), GAPDH (Abcam 8245; 1:2000)) overnight at 4° C., washed five times in TBS plus 0.1% Tween (TBST) and then incubated with the appropriate HRP-conjugated secondary antibody (Jackson Labs) for 1 hour at room temperature. Membranes were washed five times in TBST and visualized on autoradiography film after incubating with ECL reagent (Supersignal West Pico or Supersignal West Femto; Thermo Scientific).

A375 melanoma cells [2] = test: A375 mouse xenografts treated with DMH1, tumor volume; assay type: in vivo; conditions: 25 mg/kg DMH1 intraperitoneally every other day vs vehicle
Excerpt: All animal protocols were approved by the UMMS Institution Animal Care and Use Committee (A-2016, A-2171). Mice were randomly allocated to individual experimental groups. No blinding was done as animal groups were identified by tagging and cage labeling. Animals were excluded, according to pre-established criteria, if the tumor volume reached>1,000 mm^3; if tumor size or location affected the mobility or general health of animal, the animal was euthanized and excluded from the experiment or the complete experiment was terminated. A375 cells stably expressing an EGFP or GDF6 or SMAD1 shRNA and/or empty vector or GDF6-expressing vector or SMAD1DVD-overexpressing vector were subcutaneously injected into the flanks of 6-8-week-old BALB/c nu/nu female mice (Taconic Farms) to produce orthotopic primary tumor. Primary tumor growth was monitored every 3 days with calipers, and the tumor volume was calculated as described previously (C. Gazin, N. Wajapeyee, S. Gobeil, C. M. Virbasius, M. R. Green, An elaborate pathway required for Ras-mediated epigenetic silencing. Nature 449, 1073-1077 (2007)). For GDF6 knockdown, SMAD1 knockdown and epistasis experiments, […] live cells were injected. For GDF6 overexpression experiments, 1×10^6 live cells were injected. […] The growth of the tumor was monitored as described above. […]

A375 melanoma cells [3] = test: growth curves by direct cell counting, A375; assay type: cell-based, human; conditions: 10 μM DMH1 vs control media
Description: (§1) For growth curves 50,000 live cells were seeded per well in a 6-well tissue culture plate on day 0. The numbers of live cells were calculated every day using an automated cell counter (Nexcelom Bioscience Cellometer Auto T4) following standard procedures. All assays were performed with technical replicates. For clonogenic assays, 3,000 live cells were seeded in a 10 cm tissue culture plate. After 3 weeks, colonies were fixed and stained using bromophenol blue in acetone. ImageJ was used to quantify the number of colonies. In assays with DMH1 treatment, control or DMH1-containing media was replaced every other day. For soft agar assays a 0.5% bottom layer (1:1 with 1% agar and 2×DMEM with 20% FBS) and a 0.3% top layer (1:1 with 0.6% agar and 2×DMEM with 20% FBS) were used. 3,000 live cells per well of a 6-well tissue culture plate were added in the top layer. Media was added initially then replaced every 3 days. After 3 weeks, colonies were stained with nitroblue tetrazolium chloride overnight at 37° C. Once stained, individual wells were photographed, and ImageJ was used to count the number of colonies. All these assays were done in triplicate, and experiments were repeated at least twice. A representative image of each has been shown.

A375 melanoma cells [4] = test: clonogenic growth / colony formation assay; assay type: cell-based, human; conditions: A375-EMPTY vs A375-SMAD1DVD cells treated with DMH1
Description: as §1

SKMEL28 melanoma cells = test: growth curves by direct cell counting, SKMEL28; assay type: cell-based, human; conditions: SKMEL28 cells treated with DMH1 vs control
Description: as §1

MeWo melanoma cells = test: proliferation of GDF6-knockdown cells supplemented with recombinant GDF6 protein; assay type: cell-based, human; conditions: MeWo cells treated with shRNAs targeting GDF6, recombinant GDF6 protein added to culture media

CC(C)Oc1ccc(-c2cnc3c(-c4ccnc5ccccc45)cnn3c2)cc1 [DMH1]
level of phospho-SMAD1 relative to total SMAD protein [1]: reduced level of phospho-SMAD1
tumor volume / tumor growth (A375 melanoma cells [2]): smaller tumors arose and grew more slowly; also recorded: decreased tumorigenicity; also recorded: abrogates melanoma growth
cell growth (growth curves) (A375 melanoma cells [3]): grew more slowly; also recorded: inhibits A375 melanoma cell growth
growth defects caused by DMH1 in SMAD1DVD-expressing cells (colony formation) (A375 melanoma cells [4]): reversed by SMAD1DVD
cell growth (growth curves) (SKMEL28 melanoma cells): grew more slowly

B1: recombinant GDF6 protein: recombinant GDF6 protein added to culture media; soluble, extracellular BMP ligand (BMP13) (protein, UniProt Q6KF10 336-455, looked up)
Growth/differentiation factor …: TAFASRHGKRHGKKSRLRCSKKPLHVNFKELGWDDWIIAPLEYEAYHCEGVCDFPLRSHLEPTNHAIIQTLMNSMDPGSTPPSCCVPTKLTPISILYIDAGNNVVYKQYEDMVVESCGCR
proliferation of GDF6-knockdown cells (MeWo melanoma cells): restored
proliferation of GDF6-knockdown cells (MeWo melanoma cells; listed as recombinant GDF6): able to sustain their proliferation
